Measured values published in patent US11850325B2, “Injectable, bioadhesive cryogel scaffolds for biomedical uses” (Northeastern University, priority 2019, dated 2023).

Conditions: mouse
Procedure: All animal experiments were reviewed and approved by Institutional Animal Care and Use Committee (ICAUC; protocol 15-1248R) at Northeastern University (Boston, MA, USA). […] Anesthesia was achieved by isoflurane (2.5%) inhalation, followed by SC buprenorphine (0.02-0.05 mg/kg) administration. After inducing anesthesia, cryogels (4% total polymer concentration (w/v), 4×4×1 mm) were implanted via injection using a sterile 18-gauge needle.
The cryogels sterilized in 70% ethanol (v/v) for 20 minutes and under UV light. Cryogels were loaded into sterile syringes and sterile 18G needles. […] After 21 days post-implantation, animals were euthanized and the cryogels were retrieved along with the surrounding tissues for histological assessment, and placed in cold DPBS. Hydrogels used for biodegradation studies were thoroughly washed in distilled water, and excess tissue was carefully removed under a dissection microscope.
After explantation, samples were fixed in paraformaldehyde (4% v/v)) for 4 h, followed by overnight incubation in 30% sucrose (30% w/v) at 4° C. Samples were then embedded in OCT and flash frozen in liquid nitrogen. Frozen samples were sectioned using a Leica Biosystems CM3050 S Research Cryostat. 14-μm cryosections were obtained and mounted in positively charged slides using DPX mountant medium (Sigma). Slides were then processed for hematoxylin and eosin staining (Sigma) according to instructions from the manufacturer. Immunohistofluorescent staining was performed on mounted cryosections as previously reported.^15 Anti-CD3 [SP7] (ab16669), anti-CD206 (ab125212), anti-F480 were used as primary antibodies, and an Alexa Fluor 594-conjugated secondary antibody (Invitrogen) was used for detection. All sections were counterstained with DAPI (Invitrogen), and visualized on an AxioObserver Z1 inverted microscope.
In vivo injectability, bioadhesion, and immunohistology. Lastly, we characterized the in vivo biodegradation of HAGM and HPD cryogels, including their interactions with native tissues via subcutaneous implantation in a murine animal model. Sterile composite cryogels (HAGM and HPD, 4×4×1 mm) were suspended in 0.2 mL of PBS and were injected subcutaneously in the backs of C57BL/6J mice. After 21 days post-implantation, the mice were euthanized prior to cryogel retrieval, along with adjacent tissue. […] Explanted samples were then flash-frozen at an optimal cutting temperature (OCT) compound, cryosectioned into 14-μm slices, and mounted onto glass slides for histological examination.

hyaluronic acid methacrylate [HAGM]
H&E staining, cell migration into explanted cryogels (in vivo): migration of predominantly non-inflammatory cells
lymphocyte/leukocyte infiltration (CD3) (in vivo): no significant local lymphocyte infiltration
macrophage infiltration (CD206 and F480) (in vivo): some macrophages
tissue integration and immunocytotoxicity (in vivo, sc): high tissue integration with no immunocytoxicity
in vivo biodegradation (visual inspection) (sc): no biodegradation
